Measured values as given in ChEMBL document CHEMBL5113490, “Discovery of CN0 as a novel proteolysis-targeting chimera (PROTAC) degrader of PARP1 that can activate the cGAS/STING immunity pathway combined with daunorubicin” (Bioorg Med Chem, 2022).
Values belong to the compound of their own block, whether it stands above or below them. The source made the active and inactive calls. The calls are words filed in the database; no cut-off is given here.

How the values were obtained:
[1] = molecular target: T1, Protein cereblon/Poly [ADP-ribose] polymerase 1 (Homo sapiens, UniProt P09874+Q96SW2); assay: Protac activity at CRBN/PARP1 in human MDA-MB-231 cells assessed as PARP1 degradation measured after 24 hrs; format: cell-based
Target sequence in this assay (P09874 whole entry): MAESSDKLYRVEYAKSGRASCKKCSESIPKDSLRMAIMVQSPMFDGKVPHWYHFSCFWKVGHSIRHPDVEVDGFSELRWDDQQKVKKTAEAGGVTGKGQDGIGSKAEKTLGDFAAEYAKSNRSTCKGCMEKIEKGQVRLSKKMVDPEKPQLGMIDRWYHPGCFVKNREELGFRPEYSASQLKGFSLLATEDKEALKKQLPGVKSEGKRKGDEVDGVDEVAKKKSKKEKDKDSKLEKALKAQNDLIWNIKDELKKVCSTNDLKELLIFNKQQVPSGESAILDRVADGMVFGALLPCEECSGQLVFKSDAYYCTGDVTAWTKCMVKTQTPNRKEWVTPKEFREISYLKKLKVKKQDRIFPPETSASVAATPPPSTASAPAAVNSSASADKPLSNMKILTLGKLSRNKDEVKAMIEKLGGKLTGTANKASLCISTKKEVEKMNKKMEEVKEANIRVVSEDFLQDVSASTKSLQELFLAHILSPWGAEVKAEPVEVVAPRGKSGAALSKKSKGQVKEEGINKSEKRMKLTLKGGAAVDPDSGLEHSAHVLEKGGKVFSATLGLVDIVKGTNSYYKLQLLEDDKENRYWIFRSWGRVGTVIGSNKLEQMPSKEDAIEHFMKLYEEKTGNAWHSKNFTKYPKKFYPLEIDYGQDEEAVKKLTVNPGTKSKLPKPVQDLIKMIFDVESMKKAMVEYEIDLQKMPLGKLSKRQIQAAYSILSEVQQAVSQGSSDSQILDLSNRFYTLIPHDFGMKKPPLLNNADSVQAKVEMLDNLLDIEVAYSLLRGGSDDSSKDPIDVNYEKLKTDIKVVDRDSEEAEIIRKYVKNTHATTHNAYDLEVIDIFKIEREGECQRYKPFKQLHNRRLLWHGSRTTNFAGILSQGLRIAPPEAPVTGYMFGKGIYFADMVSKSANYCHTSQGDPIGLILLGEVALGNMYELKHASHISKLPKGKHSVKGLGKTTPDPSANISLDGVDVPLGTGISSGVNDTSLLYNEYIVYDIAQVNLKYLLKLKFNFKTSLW
Target sequence in this assay (Q96SW2 whole entry): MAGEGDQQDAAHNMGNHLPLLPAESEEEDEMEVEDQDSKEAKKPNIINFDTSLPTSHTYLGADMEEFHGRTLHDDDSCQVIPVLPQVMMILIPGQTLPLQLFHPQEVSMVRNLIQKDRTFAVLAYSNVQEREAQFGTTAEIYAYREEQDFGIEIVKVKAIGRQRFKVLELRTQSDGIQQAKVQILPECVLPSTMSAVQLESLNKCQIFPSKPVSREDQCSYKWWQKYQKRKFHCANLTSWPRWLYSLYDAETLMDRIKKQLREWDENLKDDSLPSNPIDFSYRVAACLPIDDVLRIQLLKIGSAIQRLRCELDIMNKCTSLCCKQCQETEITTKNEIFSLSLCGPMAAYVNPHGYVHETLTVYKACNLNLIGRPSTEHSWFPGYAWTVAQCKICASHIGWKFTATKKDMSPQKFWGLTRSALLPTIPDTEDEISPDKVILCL

[2] = molecular target: T1, Protein cereblon/Poly [ADP-ribose] polymerase 1; assay: Protac activity at CRBN/PARP1 in human MDA-MB-231 cells assessed as PARP1 degradation at 10 uM measured after 4 to 48 hrs; format: cell-based; settings: time 4-48 hrs
Target sequence in this assay (P09874 2-1014 limits assumed): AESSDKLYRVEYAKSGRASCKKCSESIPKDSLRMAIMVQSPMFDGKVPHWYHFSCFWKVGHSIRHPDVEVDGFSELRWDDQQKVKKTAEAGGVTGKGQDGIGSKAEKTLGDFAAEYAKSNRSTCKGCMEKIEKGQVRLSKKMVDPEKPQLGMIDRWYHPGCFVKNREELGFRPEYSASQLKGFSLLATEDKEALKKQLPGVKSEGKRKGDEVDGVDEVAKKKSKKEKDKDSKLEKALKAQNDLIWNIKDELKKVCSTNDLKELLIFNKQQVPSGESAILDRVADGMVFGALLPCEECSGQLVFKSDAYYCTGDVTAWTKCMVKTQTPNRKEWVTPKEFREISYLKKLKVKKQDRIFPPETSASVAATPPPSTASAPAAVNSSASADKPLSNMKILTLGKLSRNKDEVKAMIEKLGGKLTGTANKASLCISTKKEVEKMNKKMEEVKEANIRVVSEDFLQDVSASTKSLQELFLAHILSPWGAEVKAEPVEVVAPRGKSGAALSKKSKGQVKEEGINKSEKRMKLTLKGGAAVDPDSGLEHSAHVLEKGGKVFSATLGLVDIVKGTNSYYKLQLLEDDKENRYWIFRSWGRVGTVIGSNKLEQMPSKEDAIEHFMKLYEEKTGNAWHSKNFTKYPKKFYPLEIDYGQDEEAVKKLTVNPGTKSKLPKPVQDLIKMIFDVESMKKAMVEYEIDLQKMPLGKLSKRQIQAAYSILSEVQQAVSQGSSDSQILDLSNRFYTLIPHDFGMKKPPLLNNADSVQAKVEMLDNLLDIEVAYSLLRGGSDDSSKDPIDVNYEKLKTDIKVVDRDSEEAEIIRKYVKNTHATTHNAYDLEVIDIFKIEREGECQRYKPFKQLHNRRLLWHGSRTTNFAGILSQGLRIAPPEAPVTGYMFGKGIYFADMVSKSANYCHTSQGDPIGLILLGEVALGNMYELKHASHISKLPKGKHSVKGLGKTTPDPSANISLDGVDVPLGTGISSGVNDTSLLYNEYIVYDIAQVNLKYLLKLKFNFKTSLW
Target sequence in this assay (Q96SW2 whole entry partner): as the sequence (Q96SW2 whole entry) above

[3] = molecular target: Protein cereblon (Homo sapiens) (UniProt Q96SW2); assay: Binding affinity to CRBN in human MDA-MB-231 cells measured by thermal shift assay; format: cell-based
Protein cereblon (Homo sapiens), sequence (Q96SW2 whole entry): as above

[4] = molecular target: T1, Protein cereblon/Poly [ADP-ribose] polymerase 1; assay: Protac activity at CRBN/PARP1 in human MDA-MB-231 cells assessed as PARP1 degradation at 10 uM measured after 3 hrs in presence of 10 uM Z-VAD-FMK; format: cell-based
Target sequence in this assay (P09874 2-1014 limits assumed): as the sequence (P09874 2-1014 limits assumed) above
Target sequence in this assay (Q96SW2 whole entry partner): as the sequence (Q96SW2 whole entry) above

[5] = system: MDA-MB-231; assay: Inhibition of DNA repair in human MDA-MB-231 cells assessed as induction of gamma-H2AX level at 10 uM in presence of 0.5 uM daunorubicin measured after 2 hrs by western blot analysis; format: functional, cell-based
[6] = system: MDA-MB-231; assay: Inhibition of DNA repair in human MDA-MB-231 cells assessed as induction of free cytosolic dsDNA at 5 uM in presence of 0.5 uM daunorubicin measured after 24 hrs by DAPI staining method; format: functional, cell-based
[7] = system: MDA-MB-231; assay: Growth inhibition of human MDA-MB-231 cells at 10 uM; format: functional; settings: read-out: GI
[8] = system: MDA-MB-231; assay: Growth inhibition of human MDA-MB-231 cells at 10 uM in presence of 0.25 uM daunorubicin; format: functional; settings: read-out: GI
[9] = system: MDA-MB-231; assay: Growth inhibition of human MDA-MB-231 cells at 10 uM in presence of 1 uM daunorubicin; format: functional; settings: read-out: GI
[10] = system: MDA-MB-231; assay: Growth inhibition of human MDA-MB-231 cells at 10 uM in presence of 4 uM daunorubicin; format: functional; settings: read-out: GI
[11] = system: MDA-MB-231; assay: Growth inhibition of human MDA-MB-231 cells assessed as combination index at 10 uM in presence of 0.25 uM daunorubicin; format: functional
[12] = system: MDA-MB-231; assay: Growth inhibition of human MDA-MB-231 cells assessed as combination index at 10 uM in presence of 1 uM daunorubicin; format: functional
[13] = system: MDA-MB-231; assay: Growth inhibition of human MDA-MB-231 cells assessed as combination index at 10 uM in presence of 4 uM daunorubicin; format: functional
[14] = system: 4T1; assay: Growth inhibition of mouse 4T1 cells at 10 uM; format: functional; settings: read-out: GI
[15] = system: 4T1; assay: Growth inhibition of mouse 4T1 cells at 10 uM in presence of 0.25 uM daunorubicin; format: functional; settings: read-out: GI
[16] = system: 4T1; assay: Growth inhibition of mouse 4T1 cells at 10 uM in presence of 0.5 uM daunorubicin; format: functional; settings: read-out: GI
[17] = system: 4T1; assay: Growth inhibition of mouse 4T1 cells at 10 uM in presence of 1 uM daunorubicin; format: functional; settings: read-out: GI
[18] = system: 4T1; assay: Growth inhibition of mouse 4T1 cells assessed as combination index at 10 uM in presence of 0.25 uM daunorubicin; format: functional
[19] = system: 4T1; assay: Growth inhibition of mouse 4T1 cells assessed as combination index at 10 uM in presence of 0.5 uM daunorubicin; format: functional
[20] = system: 4T1; assay: Growth inhibition of mouse 4T1 cells assessed as combination index at 10 uM in presence of 1 uM daunorubicin; format: functional
[21] = Cytotoxicity against human MCF-10A cells assessed as growth inhibition at 10 uM; format: toxicity, cell-based; settings: read-out: GI
[22] = Cytotoxicity against human MCF-10A cells assessed as growth inhibition at 10 uM in presence of 0.25 uM daunorubicin; format: toxicity, cell-based; settings: read-out: GI
[23] = Cytotoxicity against human MCF-10A cells assessed as growth inhibition at 10 uM in presence of 0.5 uM daunorubicin; format: toxicity, cell-based; settings: read-out: GI
[24] = system: MDA-MB-231; assay: Activation of cGAS/STING pathway in human MDA-MB-231 cells assessed as increase in TBK1 phosphorylation at S172 residue at 10 uM in presence of 0.5 uM daunorubicin measured after 24 hrs; format: cell-based; settings: filed as activator
[25] = system: MDA-MB-231; assay: Activation of cGAS/STING pathway in human MDA-MB-231 cells assessed as increase in IRF3 phosphorylation at S396 residue at 10 uM in presence of 0.5 uM daunorubicin measured after 24 hrs; format: cell-based; settings: filed as activator
[26] = system: MDA-MB-231; assay: Activation of cGAS/STING pathway in human MDA-MB-231 cells assessed as increase in STING phosphorylation at 10 uM in presence of 0.5 uM daunorubicin measured after 24 hrs; format: cell-based; settings: filed as activator
[27] = system: MDA-MB-231; assay: Activation of cGAS/STING pathway in human MDA-MB-231 cells assessed as increase in P65 phosphorylation at 10 uM in presence of 0.5 uM daunorubicin measured after 24 hrs; format: cell-based; settings: filed as activator
[28] = system: MDA-MB-231; assay: Activation of cGAS/STING pathway in human MDA-MB-231 cells assessed as upregulation of cGAS mRNA expression at 10 uM in presence of 0.5 uM daunorubicin measured after 24 hrs; format: cell-based; settings: filed as activator
[29] = system: MDA-MB-231; assay: Activation of cGAS/STING pathway in human MDA-MB-231 cells assessed as upregulation of STING mRNA expression at 10 uM in presence of 0.5 uM daunorubicin measured after 24 hrs; format: cell-based; settings: filed as activator
[30] = system: MDA-MB-231; assay: Activation of cGAS/STING pathway in human MDA-MB-231 cells assessed as upregulation of CCL5 mRNA expression at 10 uM in presence of 0.5 uM daunorubicin measured after 24 hrs; format: cell-based; settings: filed as activator
[31] = system: MDA-MB-231; assay: Activation of cGAS/STING pathway in human MDA-MB-231 cells assessed as upregulation of CXCL9 mRNA expression at 10 uM in presence of 0.5 uM daunorubicin measured after 24 hrs; format: cell-based; settings: filed as activator
[32] = system: MDA-MB-231; assay: Activation of cGAS/STING pathway in human MDA-MB-231 cells assessed as upregulation of CXCL10 mRNA expression at 10 uM in presence of 0.5 uM daunorubicin measured after 24 hrs; format: cell-based; settings: filed as activator
[33] = system: MDA-MB-231; assay: Antiproliferative activity against human MDA-MB-231 cells assessed as increase in cell killing by T cells at 10 uM in presence of 0.5 uM daunorubicin measured after 24 hrs by flow cytometry analysis; format: functional, cell-based
[34] = Half-life in rat at 8 mg/kg, iv; format: ADME, organism-based; settings: in vivo
[35] = Cmax in rat at 8 mg/kg, iv; format: ADME, organism-based; set-up: dose 8 mg/kg, route iv; settings: in vivo
[36] = AUC (0 to t) in rat at 8 mg/kg, iv; format: ADME, organism-based; set-up: dose 8 mg/kg, route iv; settings: in vivo
[37] = MRT in rat at 8 mg/kg, iv; format: ADME, organism-based; settings: in vivo
[38] = system: 4T1; assay: In vivo protac activity at CRBN/PARP1 in mouse 4T1 cells xenografted in mouse assessed as PARP1 degradation at 25 mg/kg, ip administered once a day; format: functional, organism-based
[39] = system: 4T1; assay: Antitumor activity against mouse 4T1 cells allografted in immunocompetent mouse assessed as reduction in tumor volume at 25 mg/kg, ip administered once a day in presence of daunorubicin at 0.5 mg/kg, ip administered once a day; format: functional, organism-based
[40] = Toxicity in immunocompetent mouse allografted with mouse 4T1 cells assessed as effect on body weight at 25 mg/kg, ip administered once a day in presence of daunorubicin at 0.5 mg/kg, ip administered once a day; format: organism-based; settings: in vivo
[41] = system: 4T1; assay: Antitumor activity against mouse 4T1 cells allografted in immunocompetent mouse assessed as increase in CD8-positive T cells at 25 mg/kg, ip administered once a day in presence of daunorubicin at 0.5 mg/kg, ip administered once a day; format: functional, organism-based
[42] = system: MDA-MB-231; assay: Growth inhibition of human MDA-MB-231 cells at 0.25 uM; format: functional; settings: read-out: GI
[43] = system: MDA-MB-231; assay: Growth inhibition of human MDA-MB-231 cells at 1 uM; format: functional; settings: read-out: GI
[44] = system: MDA-MB-231; assay: Growth inhibition of human MDA-MB-231 cells at 4 uM; format: functional; settings: read-out: GI
[45] = system: 4T1; assay: Growth inhibition of mouse 4T1 cells at 0.25 uM; format: functional; settings: read-out: GI
[46] = system: 4T1; assay: Growth inhibition of mouse 4T1 cells at 0.5 uM; format: functional; settings: read-out: GI
[47] = system: 4T1; assay: Growth inhibition of mouse 4T1 cells at 1 uM; format: functional; settings: read-out: GI
[48] = Cytotoxicity against human MCF-10A cells assessed as growth inhibition at 0.25 uM; format: toxicity, cell-based; settings: read-out: GI
[49] = Cytotoxicity against human MCF-10A cells assessed as growth inhibition at 0.5 uM; format: toxicity, cell-based; settings: read-out: GI

DC50 [1]: 252 nM
Activity [2]: Active
Activity [3]: Active
Activity [4]: Active
half-life [34]: 1.87 h
Cmax [35]: 5770 ng/mL
AUC(0-t) [36]: 6960 ng·h/mL
MRT [37]: 2.55 h
Compound: NC(=O)c1cccc2cn(-c3ccc(C4CCCN(c5cccc6c5C(=O)N(C5CCC(=O)NC5=O)C6=O)C4)cc3)nc12 (centres undefined)
inhibition [5]: Active
inhibition [6]: Active
inhibition of growth at 10 µM [7]: 4.55%
inhibition of growth at 10 µM [8]: 22.5%
inhibition of growth at 10 µM [9]: 38.1%
inhibition of growth at 10 µM [10]: 59.8%
CI [11]: 0.21
CI [12]: 0.06
CI [13]: 0.12
inhibition of growth at 10 µM [14]: 2.71%
inhibition of growth at 10 µM [15]: 65.5%
inhibition of growth at 10 µM [16]: 70.1%
inhibition of growth at 10 µM [17]: 98.2%
CI [18]: 0.44
CI [19]: 0.45
CI [20]: 0.0001
inhibition at 10 µM [21]: 4.93%
inhibition at 10 µM [22]: 35%
inhibition at 10 µM [23]: 41.2%
Activity [24]: Active
Activity [25]: Active
Activity [26]: Active
Activity [27]: Active
Activity [28]: Active
Activity [29]: Active
Activity [30]: Active
Activity [31]: Active
Activity [32]: Active
Activity [33]: Active
Activity [38]: Active
Activity [39]: Active
Activity [40]: Non-Toxic
Activity [41]: Active

Compound: COc1cccc2c1C(=O)c1c(O)c3c(c(O)c1C2=O)C[C@@](O)(C(C)=O)C[C@@H]3O[C@H]1C[C@H](N)[C@H](O)[C@H](C)O1 [DAUNORUBICIN]
inhibition of growth at 0.25 µM [42]: 9.76%
inhibition of growth at 1 µM [43]: 10.7%
inhibition of growth at 4 µM [44]: 36.9%
inhibition of growth at 0.25 µM [45]: 60%
inhibition of growth at 0.5 µM [46]: 63.6%
inhibition of growth at 1 µM [47]: 69.8%
inhibition at 0.25 µM [48]: 35%
inhibition at 0.5 µM [49]: 46.1%
